The record followed here is patent publication EP0539587A1, “ANTI[…]” (TSUMURA & CO., priority 1991, dated 1992).

Where a name gives a salt, the structure may show the parent alone.

For assay [1], the target named is Human immunodeficiency virus reverse transcriptase (Human immunodeficiency virus type 1 group M subtype B, UniProt P04585). As to the kind of experiment: Effects on reverse transcriptase activity ([3H]deoxythymidine triphosphate uptake into DNA). In kind it is biochemical. Particulars: reverse transcriptase inhibitory activity; 30 minutes at 37°C; polyrA-oligo dT template-primer; read-out: 50% inhibitory concentration (IC50) (converted). The protocol:
A reaction mixture having the composition indicated below was prepared.
50 µl of this reaction mixture was allowed to react for 30 minutes at 37°C.
Quantitative determination of the reaction product in the form of DNA was performed by measuring the uptake of the radioactivity of [³H]deoxythymidine triphosphate into DNA using ion exchange filter paper, taking that to represent reverse transcriptase inhibitory activity, and calculating the 50% inhibitory concentration (IC₅₀) of the test compound.

For assay [2], the system named is human immunodeficiency virus. As to the kind of experiment: Test of anti-AIDS virus activity using clone H9 cells (p24 antigen in culture supernatant). In kind it is cell-based. As to conditions: Human immunodeficiency virus 1, 120 h, p24 antigen in culture supernatant after 5 days, read-out: Rate of Inhibition (%). The protocol:
1 x 10⁶ clone H9 cells (©T-cells) were placed in individual culture tubes. The serially diluted test drug was then placed in each tube. Roughly 100TCID₅₀ of human immunodeficiency virus (culture supernatant of H9/HTLV-IIIB cells) were then placed in each tube to infect the above-mentioned cells. After incubating the tubes for 1 hour at 37°C in the presence of 5% CO₂, the unabsorbed viral particles and test substance were removed by centrifugal separation (x3000 g, 5 minutes). Moreover, after again centrifugally washing (x3000 g, 5 minutes) the cells with fresh culture liquid, fresh culture liquid was added to each tube to prepare cell suspensions having a concentration of 0.2 x 10⁶ cells per milliliter. 0.5 ml of these cell suspensions were added to each well of a 24 well culture plate containing 0.5 ml of the serially diluted test drug. After incubating this plate for 5 days at 37°C in the presence of 5% CO₂, the amount of p24, which is the human immunodeficiency virus antigen in the culture supernatant, was measured, followed by calculation of the rate of inhibition (%) at the concentrations of the test drug indicated below.

`O=C(O)/C=C(\C(=O)O[C@H]1[C@@H]2OC(=O)c3cc(O)c(O)c(O)c3-c3c(cc(O)c(O)c3O)C(=O)OC[C@H]1O[C@@H](OC(=O)c1cc(O)c(O)c(O)c1)[C@@H]2O)[C@H]1c2c(cc(O)c(O)c2O)C(=O)O[C@@H]1C(=O)O` [Specific Example 1, repandusinic acid A monopotassium salt]: the IC50 in assay [1] was 103 nM. The inhibition (usually how much of the control response was suppressed) at 0.195 µg/mL in assay [2] (0.195 µg/ml) is 27.8%. Besides, in assay [2] (3.125 µg/ml), the inhibition at 3.125 µg/mL was 66.7%. Also, the inhibition at 12.5 µg/mL in assay [2] (12.5 µg/ml) came out at 94.4%.
